Results reported in EPA's ToxValDB 9.5.

System: Rattus norvegicus
[1] = developmental, oral, gavage, F, Wistar, generation: F1, F1: novel object test (time exploring both objects, trial 2) + F1: novel object test (time exploring familiar object, trial 2)
[2] = developmental, oral, gavage, M, Wistar, generation: F1, F1: active avoidance (shuttle box, conditioned avoidance response, 4th block) + F1: passive avoidance (avoidance latency) + F1: rotarod (…
[3] = developmental, oral, gavage, M, Wistar, generation: F1, F1: auditory startle reflex (peak latency) + F1: auditory startle reflex (pre-pulse inhibition peak latency) + F1: vocalization (number …
[4] = subchronic, duration: 3 months, oral, drinking water, M/F, Sprague-Dawley, Morris water maze (escape time, acquisition, day 1) + Morris water maze (escape time, acquisition, day 5)
[5] = subchronic, duration: 3 months, oral, drinking water, M/F, Sprague-Dawley, Morris water maze (escape time, acquisition, day 6)
[6] = subchronic, duration: 12 weeks, oral, drinking water, M, Sprague-Dawley, territorial aggression (ventral presenting posture events of stud male)
[7] = subchronic, duration: 30 days, oral, drinking water, M, Wistar, active avoidance (shuttle box, number of avoidances of conditioned shock stimulus)

SMILES: [F-].[Na+] [Sodium fluoride]
- NOEL (developmental, oral, gavage, F, Wistar, generation: F1, F1: auditory startle reflex (amplitude) + F1: auditory startle reflex (peak latency) + F1: auditory startle reflex (pre-pulse inhibition …): 2.26 mg/kg-day
- LOEL [1]: 2.26 mg/kg-day
- NOEL [1]: 1.13 mg/kg-day
- LOEL (developmental, oral, gavage, M/F, Sprague-Dawley, generation: F1, F1: air righting + F1: Morris water maze (escape time, probe test, day 5) + F1: Morris water maze (platform crossing, probe test, day 5) + …): 3.44 mg/kg-day
- NOEL (developmental, oral, gavage, M/F, Sprague-Dawley, generation: F1, F1: auditory startle (response to metal object sound) + F1: cliff avoidance): 3.44 mg/kg-day
- NOEL (developmental, oral, gavage, M, Wistar, generation: F1, F1: active avoidance (shuttle box, conditioned avoidance response, 1st block) + F1: novel object test (time exploring both objects, trial 2…): 2.26 mg/kg-day
- LOEL [2]: 2.26 mg/kg-day
- NOEL [2]: 1.13 mg/kg-day
- LOEL (developmental, oral, gavage, M, Wistar, generation: F1, F1: auditory startle reflex (amplitude)): 1.13 mg/kg-day
- LOEL [3]: 2.26 mg/kg-day
- NOEL [3]: 1.13 mg/kg-day
- LOEL (developmental, oral, gavage, M, Wistar, generation: F1, F1: sexual behavior (mount/intromission frequency) + F1: sexual behavior (mount/intromission latency)): 1.13 mg/kg-day
- LOEL (short-term, duration: 14 days, injection, intraperitoneal, M, Wistar, rotarod (endurance time)): 9.05 mg/kg-day
- LOEL [4]: 1.36 mg/kg-day
- NOEL [4]: 0.68 mg/kg-day
- LOEL [5]: 3.27 mg/kg-day
- NOEL [5]: 0.33 mg/kg-day
- NOEL (subchronic, duration: 3 months, oral, drinking water, M/F, Sprague-Dawley, Morris water maze (platform crossing, probe test, day 7) + Morris water maze (time in target quadrant, probe test, day 7)): 3.27 mg/kg-day
- LOEL (subchronic, duration: 3 months, oral, drinking water, M/F, Wistar, passive avoidance (step-down test, time to move from rubber mat to electrified bar, session 2, day 30) + passive avoidance (step-down test, …): 5.84 mg/kg-day
- LOEL (subchronic, duration: 3 months, oral, drinking water, M, Sprague-Dawley, Morris water maze (escape time, acquisition, day 1) + Morris water maze (escape time, acquisition, day 11) + Morris water maze (escape time…): 7.52 mg/kg-day
- NOEL (subchronic, duration: 3 months, oral, drinking water, M, Wistar, Morris water maze (entries into target quadrant, probe test, day 4) + Morris water maze (escape time, acquisition, day 2) + Morris water …): 3.34 mg/kg-day
- LOEL (subchronic, duration: 3 months, oral, gavage, M/F, Sprague-Dawley, Morris water maze (escape time, acquisition day 1) + Morris water maze (escape time, acquisition, day 5)): 9.05 mg/kg-day
- NOEL (subchronic, duration: 3 months, oral, gavage, M, Albino, open field (ambulation distance) + open field (ambulation time) + open field (immobility time) + open field, stereotypic events + open field…): 9.05 mg/kg-day
- LOEL (subchronic, duration: 3 months, oral, gavage, M, Albino, open field (squares crossed)): 4.52 mg/kg-day
- LOEL (subchronic, duration: 3 months, oral, gavage, M, Wistar, Y-maze (number of training runs to meet 90% learning standard, day 23) + Y-maze (number of training runs to meet 90% learning standard, day …): 6.67 mg/kg-day
- NOEL (subchronic, duration: 12 weeks, oral, drinking water, M, Sprague-Dawley, sexual behavior (ejaculation latency) + territorial aggression (fights with stud male)): 18.8 mg/kg-day
- LOEL (subchronic, duration: 12 weeks, oral, drinking water, M, Sprague-Dawley, sexual behavior (intromission latency) + sexual behavior (post-ejaculatory interval) + sexual behavior (time to first mount) + sexual …): 6.27 mg/kg-day
- LOEL [6]: 18.8 mg/kg-day
- NOEL [6]: 6.27 mg/kg-day
- NOEL (subchronic, duration: 12 weeks, oral, gavage, Wistar, open field (ambulation distance, 12 wks) + open field (ambulation distance, 3 wks) + open field (ambulation events, 12 wks) + open field (…): 2.3 mg/kg-day
- NOEL (subchronic, duration: 30 days, oral, drinking water, M/F, Wistar, activity cage (ambulatory events) + activity cage (head turning events) + activity cage (head turning time) + activity cage (rearing events…): 10.4 mg/kg-day
- LOEL (subchronic, duration: 30 days, oral, drinking water, M/F, Wistar, activity cage (ambulatory time) + activity cage (rearing time) + activity cage (sitting events) + activity cage (sitting time) + activity …): 10.4 mg/kg-day
- NOEL (subchronic, duration: 30 days, oral, drinking water, M, Wistar, T-maze (number of errors, retention phase)): 40 mg/kg-day
- LOEL (subchronic, duration: 30 days, oral, drinking water, M, Wistar, T-maze (number of sessions to reach learning criterion)): 40 mg/kg-day
- LOEL [7]: 4.87 mg/kg-day
- NOEL [7]: 2.33 mg/kg-day
- NOEL (subchronic, duration: 30 days, oral, drinking water, M, Wistar, active avoidance (shuttle box, number of escapes of conditioned shock stimulus) + active avoidance (shuttle box, number of failures to avoid…): 4.87 mg/kg-day
- LOEL (subchronic, duration: 30 days, oral, drinking water, M, Wistar, dental fluorosis_0 degrees + dental fluorosis_1 degree + open field (squares crossed, test session)): 2.33 mg/kg-day
- NOEL (subchronic, duration: 30 days, oral, drinking water, M, Wistar, open field (squares crossed, day 1 - minute 1) + open field (squares crossed, day 1 - minute 2) + open field (squares crossed, day 1) + open…): 6.67 mg/kg-day
- NOEL (subchronic, duration: 30 days, oral, drinking water, M, Wistar, passive avoidance (exploration, number of crossings) + passive avoidance (exploration, time in small compartment)): 14.8 mg/kg-day
- LOEL (subchronic, duration: 30 days, oral, drinking water, M, Wistar, passive avoidance (retention, number of crossings) + passive avoidance (retention, time in small compartment) + T-maze (exploratory activity…): 14.8 mg/kg-day
- LOEL (subchronic, duration: 30 days, oral, drinking water, M, Wistar, passive avoidance (retention, time in small compartment) + T-maze (exploratory activity) + T-maze (number of correct choices) + T-maze (…): 14.8 mg/kg-day
- LOEL (mg% thigh bone) (subchronic, duration: 30 days, oral, gavage, motor activity (spontaneous) + orienting reflex): 10.6
- LOEL (subchronic, duration: 60 days, oral, drinking water, F, Wistar, activity cage (exploratory motor activity events) + rotarod (latency to fall, 14 rpm)): 111 mg/kg-day
- LOEL (subchronic, duration: 60 days, oral, drinking water, F, Wistar, activity cage (motor activity events) + rotarod (latency to fall, 14 rpm)): 1.94 mg/L serum
- LOEL (subchronic, duration: 60 days, oral, drinking water, Wistar, passive avoidance (retention, latency)): 1.8 mg/kg-day
- LOEL (subchronic, duration: 60 days, oral, gavage, F, Wistar, activity cage (ambulation events)): 9.05 mg/kg-day
- NOEL (subchronic, duration: 60 days, oral, gavage, F, Wistar, rotarod (latency to fall, 14 rpm)): 18.1 mg/kg-day
